This is an account of results in ChEMBL document CHEMBL5465560, “Selectivity Literature for EUbOPEN Chemogenomic Library” (2024).

Assay [1] has as its target T1, Tyrosine-protein kinase TXK (Homo sapiens) (UniProt P42681).
T1 sequence (whole entry): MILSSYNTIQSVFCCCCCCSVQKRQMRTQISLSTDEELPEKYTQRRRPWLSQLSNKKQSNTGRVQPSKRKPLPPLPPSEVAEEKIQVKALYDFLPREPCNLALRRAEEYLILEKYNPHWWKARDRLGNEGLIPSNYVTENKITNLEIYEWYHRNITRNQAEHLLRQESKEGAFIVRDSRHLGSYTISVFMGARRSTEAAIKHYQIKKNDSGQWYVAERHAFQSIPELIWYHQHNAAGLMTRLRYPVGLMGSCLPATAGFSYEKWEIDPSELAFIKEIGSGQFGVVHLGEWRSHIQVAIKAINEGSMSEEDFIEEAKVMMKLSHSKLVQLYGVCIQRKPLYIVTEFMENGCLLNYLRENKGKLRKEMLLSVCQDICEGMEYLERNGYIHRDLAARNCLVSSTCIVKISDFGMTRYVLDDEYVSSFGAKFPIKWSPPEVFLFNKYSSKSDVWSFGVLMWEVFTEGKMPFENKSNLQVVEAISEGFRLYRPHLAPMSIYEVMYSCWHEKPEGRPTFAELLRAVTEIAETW
Nature of the assay: Selectivity interaction (Kinase panel (Z-LYTE Assay)) EUB0001632a TXK. As to conditions: at 10 µM.

Assay [2] concerns the target Interleukin-1 receptor-associated kinase 1 (Homo sapiens) (UniProt P51617). The assay is described as follows: Selectivity interaction (ActivX KiNativ screen (ex vivo kinase selectivity in human PBMCs)) EUB0001619a IRAK1. The class given is cell-based. The note with it: PBMC, at 1 µM.
Assay [3] addresses Serine/threonine-protein kinase PAK 6 (Homo sapiens) (UniProt Q9NQU5). Nature of the assay: Selectivity interaction (KinomeScan (DiscoverX)) EUB0001619a PAK6. The note with it: at 1 µM.
For assay [4], the target named is Casein kinase I isoform gamma-1 (Homo sapiens) (UniProt Q9HCP0). Nature of the assay: Selectivity interaction (KinomeScan (DiscoverX)) EUB0000666a CSNK1G1. The note with it: at 10 µM.
The target in assay [5] is Tyrosine-protein kinase Yes (Homo sapiens) (UniProt P07947). The note with it: at 10 µM.
The target of assay [6] is Ribosomal protein S6 kinase alpha-2 (Homo sapiens) (UniProt Q15349). The assay is described as follows: Selectivity interaction (ActivX KiNativ screen (kinase selectivity in THP-1 cell lysates)) EUB0000639a RPS6KA2. As to conditions: lysate, at 0.01 µM. The class given is subcellular.
In assay [7] the target is Tyrosine-protein kinase Fer (Homo sapiens) (UniProt P16591). Nature of the assay: Selectivity interaction (ActivX KiNativ screen (kinase selectivity in THP-1 cell lysates)) EUB0000639a FER. The format is subcellular. As to conditions: lysate.
Assay [8] concerns the target AP2-associated protein kinase 1 (Homo sapiens, UniProt Q2M2I8). The assay is described as follows: Selectivity interaction (KinomeScan (DiscoverX)) EUB0000045b AAK1.
The target in assay [9] is T2, Serine/threonine-protein kinase 3 (Homo sapiens) (UniProt Q13188).
T2 sequence (whole entry): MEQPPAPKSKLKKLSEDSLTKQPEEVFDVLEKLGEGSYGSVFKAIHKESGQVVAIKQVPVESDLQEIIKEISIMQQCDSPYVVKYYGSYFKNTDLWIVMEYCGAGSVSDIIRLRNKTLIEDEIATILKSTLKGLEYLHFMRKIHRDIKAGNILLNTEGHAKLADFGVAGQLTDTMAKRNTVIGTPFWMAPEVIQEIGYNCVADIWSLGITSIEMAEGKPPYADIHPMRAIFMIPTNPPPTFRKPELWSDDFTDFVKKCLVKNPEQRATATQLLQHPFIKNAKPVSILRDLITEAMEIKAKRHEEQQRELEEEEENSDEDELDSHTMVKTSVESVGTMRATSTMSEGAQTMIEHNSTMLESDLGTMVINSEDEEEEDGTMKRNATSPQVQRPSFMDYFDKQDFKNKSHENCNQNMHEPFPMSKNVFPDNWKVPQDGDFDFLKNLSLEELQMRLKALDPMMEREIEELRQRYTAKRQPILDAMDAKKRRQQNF
Nature of the assay: Selectivity interaction (ProQinase) EUB0000171b STK3.

For assay [10], the target named is Mitogen-activated protein kinase 1 (Homo sapiens, UniProt P28482). Nature of the assay: Selectivity interaction (Upstate Kinase Profiler service (Millipore)) EUB0000056c MAPK1. As to conditions: at 1 µM.
Assay [11] has as its target Tyrosine-protein kinase BTK (Homo sapiens, UniProt Q06187). Nature of the assay: Selectivity interaction (KinomeScan (DiscoverX)) EUB0000618a BTK. The note with it: at 10 µM.
For assay [12], the target named is Myosin light chain kinase, smooth muscle (Homo sapiens, UniProt Q15746). The assay is described as follows: Selectivity interaction (KinomeScan (DiscoverX)) EUB0000092b MYLK. As to conditions: at 10 µM.
For assay [13], the target named is Serine/threonine-protein kinase B-raf (Homo sapiens) (UniProt P15056). Nature of the assay: Selectivity interaction (Kinase panel (KiNativ target engagement assay in Jurkat cells)) EUB0001635a BRAF. The format is cell-based. The note with it: Selectivity number of off-targets 0.0, Selectivity number of targets 233.0, Source Knowledge https://www.sciencedirect.com/science/article/pii/S2451945619300674?via%3Dihub, at 1 µM.

For assay [14], the target named is Mitogen-activated protein kinase kinase kinase 10 (Homo sapiens) (UniProt Q02779). The assay is described as follows: Selectivity interaction (Kinase panel (KiNativ target engagement assay in Jurkat cells)) EUB0001635a MAP3K10. The format is cell-based. As to conditions: Selectivity number of off-targets 0.0, Selectivity number of targets 233.0, Source Knowledge https://www.sciencedirect.com/science/article/pii/S2451945619300674?via%3Dihub, at 1 µM.
Sequence of Mitogen-activated protein kinase kinase kinase 10 (Homo sapiens) (Q02779 whole entry, looked up): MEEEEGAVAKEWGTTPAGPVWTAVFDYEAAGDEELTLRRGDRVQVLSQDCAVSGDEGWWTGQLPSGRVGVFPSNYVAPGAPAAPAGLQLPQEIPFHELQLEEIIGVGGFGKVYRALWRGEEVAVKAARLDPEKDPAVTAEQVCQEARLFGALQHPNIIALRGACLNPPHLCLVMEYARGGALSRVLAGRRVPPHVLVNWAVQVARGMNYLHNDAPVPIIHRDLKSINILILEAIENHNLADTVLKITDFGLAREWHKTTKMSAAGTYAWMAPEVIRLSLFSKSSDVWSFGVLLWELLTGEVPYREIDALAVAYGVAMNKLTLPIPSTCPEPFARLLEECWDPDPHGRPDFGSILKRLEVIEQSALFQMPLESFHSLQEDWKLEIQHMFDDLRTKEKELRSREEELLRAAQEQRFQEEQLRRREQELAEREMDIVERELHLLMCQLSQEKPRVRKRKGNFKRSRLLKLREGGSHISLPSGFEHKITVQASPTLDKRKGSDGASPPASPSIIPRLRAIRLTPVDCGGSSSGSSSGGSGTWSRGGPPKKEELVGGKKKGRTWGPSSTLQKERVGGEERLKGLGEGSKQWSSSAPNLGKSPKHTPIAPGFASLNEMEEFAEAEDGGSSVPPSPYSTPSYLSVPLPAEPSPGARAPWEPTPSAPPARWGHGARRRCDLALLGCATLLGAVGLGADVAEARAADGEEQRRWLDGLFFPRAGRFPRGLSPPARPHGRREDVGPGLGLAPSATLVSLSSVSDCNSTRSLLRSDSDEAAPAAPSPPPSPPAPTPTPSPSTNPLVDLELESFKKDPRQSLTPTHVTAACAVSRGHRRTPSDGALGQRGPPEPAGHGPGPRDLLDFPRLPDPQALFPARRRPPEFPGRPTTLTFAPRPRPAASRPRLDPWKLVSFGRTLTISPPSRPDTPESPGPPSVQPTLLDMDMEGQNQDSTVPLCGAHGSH

Sequence of Tyrosine-protein kinase Fer (Homo sapiens) (P16591 whole entry, looked up): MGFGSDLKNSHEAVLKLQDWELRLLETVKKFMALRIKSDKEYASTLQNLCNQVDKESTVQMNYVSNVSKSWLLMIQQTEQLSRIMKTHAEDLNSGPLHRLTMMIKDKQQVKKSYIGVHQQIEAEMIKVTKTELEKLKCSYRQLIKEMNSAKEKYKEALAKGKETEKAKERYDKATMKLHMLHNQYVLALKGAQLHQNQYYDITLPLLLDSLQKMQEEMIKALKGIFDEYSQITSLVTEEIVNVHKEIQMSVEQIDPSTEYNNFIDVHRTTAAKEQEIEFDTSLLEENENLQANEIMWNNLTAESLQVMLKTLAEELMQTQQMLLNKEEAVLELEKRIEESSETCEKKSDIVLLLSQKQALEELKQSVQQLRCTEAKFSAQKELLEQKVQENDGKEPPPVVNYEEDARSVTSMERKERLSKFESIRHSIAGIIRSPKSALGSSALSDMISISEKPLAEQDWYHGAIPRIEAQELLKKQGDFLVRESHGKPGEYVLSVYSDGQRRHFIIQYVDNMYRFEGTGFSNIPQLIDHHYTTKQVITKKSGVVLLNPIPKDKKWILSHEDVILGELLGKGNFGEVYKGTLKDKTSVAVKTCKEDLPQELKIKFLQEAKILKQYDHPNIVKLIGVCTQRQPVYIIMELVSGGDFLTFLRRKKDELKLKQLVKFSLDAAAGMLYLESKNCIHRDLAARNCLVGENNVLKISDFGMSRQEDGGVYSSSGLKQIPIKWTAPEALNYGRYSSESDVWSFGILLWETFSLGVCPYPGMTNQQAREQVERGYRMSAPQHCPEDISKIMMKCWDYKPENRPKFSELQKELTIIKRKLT
Sequence of AP2-associated protein kinase 1 (Q2M2I8 whole entry, looked up): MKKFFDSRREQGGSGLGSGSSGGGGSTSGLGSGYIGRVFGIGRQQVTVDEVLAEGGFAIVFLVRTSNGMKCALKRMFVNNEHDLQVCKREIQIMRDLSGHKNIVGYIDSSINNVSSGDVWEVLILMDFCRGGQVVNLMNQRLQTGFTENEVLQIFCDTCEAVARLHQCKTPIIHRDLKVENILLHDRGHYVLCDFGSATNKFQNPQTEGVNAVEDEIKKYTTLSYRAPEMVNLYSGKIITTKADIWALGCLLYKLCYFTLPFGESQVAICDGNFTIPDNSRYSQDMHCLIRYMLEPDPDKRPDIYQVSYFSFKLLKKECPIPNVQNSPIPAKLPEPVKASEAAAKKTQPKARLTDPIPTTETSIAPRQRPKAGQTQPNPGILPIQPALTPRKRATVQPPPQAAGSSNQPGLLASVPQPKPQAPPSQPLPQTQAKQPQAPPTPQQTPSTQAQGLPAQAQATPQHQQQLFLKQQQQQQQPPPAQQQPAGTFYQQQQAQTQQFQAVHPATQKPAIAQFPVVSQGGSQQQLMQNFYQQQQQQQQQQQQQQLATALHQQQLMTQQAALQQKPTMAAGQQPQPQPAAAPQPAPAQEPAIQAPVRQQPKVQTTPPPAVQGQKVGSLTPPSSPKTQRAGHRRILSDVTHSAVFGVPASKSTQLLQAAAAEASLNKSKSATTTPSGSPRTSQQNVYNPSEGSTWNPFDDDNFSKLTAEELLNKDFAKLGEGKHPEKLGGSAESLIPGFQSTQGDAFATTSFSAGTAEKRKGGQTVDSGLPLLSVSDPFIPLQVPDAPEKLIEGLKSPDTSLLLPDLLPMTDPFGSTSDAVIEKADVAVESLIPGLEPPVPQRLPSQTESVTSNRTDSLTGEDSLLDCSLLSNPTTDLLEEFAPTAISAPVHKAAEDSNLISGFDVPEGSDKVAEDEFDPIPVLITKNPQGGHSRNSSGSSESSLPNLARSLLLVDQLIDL
Sequence of Interleukin-1 receptor-associated kinase 1 (Homo sapiens) (P51617 whole entry, looked up): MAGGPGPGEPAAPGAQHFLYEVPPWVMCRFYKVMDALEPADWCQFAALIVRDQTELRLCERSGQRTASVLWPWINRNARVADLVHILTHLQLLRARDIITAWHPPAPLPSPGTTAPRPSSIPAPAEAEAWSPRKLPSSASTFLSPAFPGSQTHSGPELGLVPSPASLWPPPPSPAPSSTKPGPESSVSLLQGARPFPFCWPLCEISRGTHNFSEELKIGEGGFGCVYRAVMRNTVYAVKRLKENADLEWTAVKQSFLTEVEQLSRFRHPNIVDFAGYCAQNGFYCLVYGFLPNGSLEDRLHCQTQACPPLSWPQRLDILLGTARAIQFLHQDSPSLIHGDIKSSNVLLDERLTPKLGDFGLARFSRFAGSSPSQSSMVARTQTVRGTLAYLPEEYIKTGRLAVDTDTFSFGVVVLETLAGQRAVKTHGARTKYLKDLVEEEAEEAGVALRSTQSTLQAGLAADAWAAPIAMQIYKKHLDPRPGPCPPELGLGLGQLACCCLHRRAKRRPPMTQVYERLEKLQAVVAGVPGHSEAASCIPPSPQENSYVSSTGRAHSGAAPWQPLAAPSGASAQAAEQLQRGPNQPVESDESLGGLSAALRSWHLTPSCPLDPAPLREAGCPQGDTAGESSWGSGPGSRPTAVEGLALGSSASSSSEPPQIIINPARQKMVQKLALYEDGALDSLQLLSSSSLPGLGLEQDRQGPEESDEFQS
Sequence of Serine/threonine-protein kinase PAK 6 (Homo sapiens) (Q9NQU5 whole entry, looked up, canonical isoform): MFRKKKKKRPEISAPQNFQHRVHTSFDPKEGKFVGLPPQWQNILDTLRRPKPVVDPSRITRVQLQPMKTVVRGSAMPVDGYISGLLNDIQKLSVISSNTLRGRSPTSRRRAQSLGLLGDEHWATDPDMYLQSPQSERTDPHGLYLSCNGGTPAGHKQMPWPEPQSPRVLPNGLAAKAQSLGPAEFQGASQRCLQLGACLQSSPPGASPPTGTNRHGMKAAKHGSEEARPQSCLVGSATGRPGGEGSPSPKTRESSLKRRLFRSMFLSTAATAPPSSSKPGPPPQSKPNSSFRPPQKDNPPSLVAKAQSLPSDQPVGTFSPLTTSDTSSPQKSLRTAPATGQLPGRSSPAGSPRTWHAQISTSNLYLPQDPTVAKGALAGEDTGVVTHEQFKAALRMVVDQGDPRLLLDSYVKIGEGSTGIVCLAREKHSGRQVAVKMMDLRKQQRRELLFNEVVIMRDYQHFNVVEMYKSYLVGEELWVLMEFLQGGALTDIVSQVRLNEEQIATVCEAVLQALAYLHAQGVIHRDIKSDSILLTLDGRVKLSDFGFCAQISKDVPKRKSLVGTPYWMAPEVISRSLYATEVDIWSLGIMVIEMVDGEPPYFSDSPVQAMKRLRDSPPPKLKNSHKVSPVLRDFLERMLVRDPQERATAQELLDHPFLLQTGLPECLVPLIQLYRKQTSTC
Sequence of Serine/threonine-protein kinase B-raf (Homo sapiens) (P15056 whole entry): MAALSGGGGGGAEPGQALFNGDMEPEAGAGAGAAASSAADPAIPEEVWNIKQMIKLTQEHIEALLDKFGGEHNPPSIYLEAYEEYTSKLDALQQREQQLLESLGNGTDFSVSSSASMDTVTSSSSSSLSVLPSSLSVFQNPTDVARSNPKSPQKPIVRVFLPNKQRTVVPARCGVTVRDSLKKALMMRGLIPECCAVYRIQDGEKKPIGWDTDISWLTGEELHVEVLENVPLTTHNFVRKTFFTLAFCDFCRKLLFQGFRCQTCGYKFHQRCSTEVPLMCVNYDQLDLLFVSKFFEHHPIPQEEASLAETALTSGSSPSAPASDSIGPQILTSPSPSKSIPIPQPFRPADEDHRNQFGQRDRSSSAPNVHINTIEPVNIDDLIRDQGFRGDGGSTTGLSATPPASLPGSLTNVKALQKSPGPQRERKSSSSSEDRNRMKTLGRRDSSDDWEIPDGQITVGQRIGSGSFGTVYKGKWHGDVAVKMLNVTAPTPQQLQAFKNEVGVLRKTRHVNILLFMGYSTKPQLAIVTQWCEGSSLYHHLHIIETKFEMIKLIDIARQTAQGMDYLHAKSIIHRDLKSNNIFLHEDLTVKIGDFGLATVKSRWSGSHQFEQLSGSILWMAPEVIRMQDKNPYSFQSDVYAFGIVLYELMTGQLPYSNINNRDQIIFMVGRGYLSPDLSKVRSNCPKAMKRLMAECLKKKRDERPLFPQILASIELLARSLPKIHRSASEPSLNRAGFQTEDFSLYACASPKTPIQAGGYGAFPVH

Compound `Cn1cc(-n2cnc3c(NCc4nc5cc(Cl)c(Cl)cc5[nH]4)nc(N4CCOCC4)nc32)cn1` had a % of control in assay [1] of 12.2%.

Take `N#Cc1cccc(-c2c[nH]c3ncnc(N4CCOCC4)c23)c1`: the % of inhibition in [2] turned out to be 2%. In [3], the % of control is 78%.

`O=C(NOC[C@H](O)CO)c1ccc(F)c(F)c1Nc1ccc(I)cc1F`: in assay [4], the % of control was found to be 61%.

In assay [5], `Cc1cc([C@@H](C)Nc2ccccc2C(=O)O)c2nc(N3CCOCC3)cc(=O)n2c1` [AZD-6482] came in with a % of control of 100%.

On to `CC[C@@H]1[C@H](F)C(=O)N[C@@H]1COc1nccc2cc(C(N)=O)c(OC)cc12` [ZIMLOVISERTIB], for which the % of inhibition in [6] was -10.4%; in assay [7] (at 0.01 µM), -9.6%; in assay [7] (at 0.04 µM), 0.8%; in assay [7] (at 0.2 µM), -7.6%; in assay [7] (at 1 µM) it was 15.7%; in assay [7] (at 5 µM) it was 10.9%.

With `C=CC(=O)Nc1cc(-n2c(=O)ccc3cnc4ccc(-c5ccc(NS(C)(=O)=O)cc5)cc4c32)ccc1C`, the values for the % of control in assay [8] (at 1 µM) and in assay [8] (at 10 µM) were 93% and 58%, respectively.

Take `C=CC(=O)Nc1cccc(C(=O)Nc2ccc(Nc3cc(-c4[nH]c(SC)nc4C)ccn3)cc2)c1`: the values for the % of control in [9] (at 1 µM) and in assay [9] (at 5 µM) were 83% and 69%, respectively.

With `Cc1ccc(-c2ccc3c(ccc4sc5c(c43)NC[C@@H](C)NC5=O)n2)cn1`, the % of inhibition in [10] is 1%.

In assay [11], `O[C@H]1CC[C@H](Nc2ncc3nc(Nc4c(F)cc(F)cc4F)n([C@H]4CCOC4)c3n2)CC1` displayed a % of control of 100%.

In assay [12], `CCC(=O)N1CCN(c2ccc(-n3c(=O)ccc4cnc5ccc(-c6cnc7ccccc7c6)cc5c43)cc2C(F)(F)F)CC1` showed a % of control of 87%.

As to `C=CC(=O)Nc1ccc(C(=O)Nc2[nH]nc3c2CN(C(=O)N[C@H](CN(C)C)c2ccccc2)C3(C)C)cc1`, the % of engagement in [13] is 2.4%; in assay [14] it was -31.2%.
